Measured values: article PMC8942544, “Design and synthesis of benzodiazepines as brain penetrating PARP-1 inhibitors” (Journal of Enzyme Inhibition and Medicinal Chemistry, 2022)
Entries after “also recorded” stand apart in the source; their conditions may differ. Where two headings read alike, the source gives them in different places.

How the values were obtained:
PARP-1 = molecular target: T1, PARP-1 (Homo sapiens, UniProt P09874); assay: PARP-1 enzyme inhibition assay (BPS Bioscience PARP Colorimetric Assay Kit); format: biochemical; conditions: for inhibition at 0.05 µM: compound concentration 50 nM, three independent tests
T1 construct: purchased BPS Bioscience 80580
Experimental: All target compounds were evaluated for PARP-1 enzyme inhibition activity at the concentration of 50 nM determined by previous pre-experiments.
The ability of the compounds to inhibit PARP-1 enzyme activity was assessed using BPS Bioscience's PARP Colorimetric Assay Kit (BPS Bioscience, Catalog # 80580). PARP-1 is known to catalyse the NAD-dependent addition of poly(ADP-ribose) to histones. The PARP-1 assay kit comes in a convenient 96-well format, with purified PARP-1 enzyme, histone mixture, activated DNA, and PARP-1 assay buffer. The key to the PARP-1 Colorimetric Activity Assay is the biotinylated substrate. With this kit, only three simple steps are required for PARP-1 reactions. First, histone proteins are coated on a 96-well plate. Next, the PARP-1 biotinylated substrate is incubated with an assay buffer that contains the PARP-1 enzyme. Finally, the plate is treated with streptavidin-HRP followed by the addition of the colorimetric HRP substrate to produce colour that can then be measured using a UV/Vis spectrophotometer microplate reader. IC50 values were calculated using GraphPad Prism5 software.

PARP-2 = PARP-2 (Homo sapiens, UniProt Q9UGN5); assay: PARP-2 enzyme inhibition (IC50); format: biochemical
Source text: PARP-2 is the closest homolog of PARP-1, which also resides in the nucleus and functions similarly to PARP-1.

[1] = system: MX-1 (BRCA1 mutant tumour cells); assay: MTT antiproliferation assay, MX-1 cells; format: cell-based; conditions: Homo sapiens, MX1, breast cancer cell line, 48 h
Experimental: (§1) Due to their acceptable inhibition rates (more than 50%) at the concentration of 50 nM, compounds H34, H42, H48, H50, and H52 were selected to evaluate the proliferation inhibition activity on several cancer cells, including BRCA1 mutant tumour cells (MX-1) and BRCA1 wild type tumour cells (MCF7 and A549).
(§2) The MTT assay was performed to detect the sensitivity of cells to anticancer drugs in vitro. The human A549, MCF7, and U87 tumour cells, as well as human BRCA mutant tumour cells (MX-1), were tested in this study. The cell culture was carried out in accordance with routine operations or instructions. Briefly, 5,000 cells were seeded in each well of a 96-well plate. After cell attachment to the bottom of the well, different concentrations of tested compounds were added into designated wells. After 48 h of incubation, 20 µL of MTT solution (5 mg/mL) were added to each well for cell staining. After 4 h, the media were removed and 150 µL of DMSO were added to each well. Finally, the absorbance was determined at 570 nm using a multifunctional microplate reader (TECAN).

MCF7 cells = assay: MTT antiproliferation assay, MCF7 cells; format: cell-based; conditions: Homo sapiens, breast cancer cell line, 48 h
Experimental: as §1, §2

A549 cells = assay: MTT antiproliferation assay, A549 cells; format: cell-based; conditions: Homo sapiens, lung cancer cell line, 48 h
Experimental: as §1, §2

[2] = Brain/plasma pharmacokinetic study in vivo; conditions: ICR mice; for concentration at 5 min / Kp at 5 min: 5 min after tail vein injection of 1.5 mg/kg
Experimental: Further, the brain permeability of representative compounds was evaluated in ICR mice. After tail vein injection of a 1.5 mg/kg dose, the concentrations of the compounds in the brain and plasma were measured after 5 min and 60 min of administration, and the brain/plasma (B/P) ratio was calculated. […] On the contrary, compounds H42 and H52 performed high B/P ratios, which were consistent with our initial expectations. Among them, the B/P ratio of H42 reached balance rapidly in vivo and maintained above 3, while the proportion of H52 in the brain increased gradually and reached 4.41 at 60 min.
All animal experiments were complied with the ARRIVE guidelines and were carried out in accordance with the U.K. Animals Act, 1986 and associated guidelines. The ICR mice were used in plasma–brain distribution assay of compounds. After tail vein injection of a 1.5 mg/kg dose, the concentrations of the compounds in the brain and plasma were measured after 5 min and 60 min of administration, and the brain/plasma (B/P) ratio was calculated. The samples of plasma and brain tissue were prepared as previously reported. An established LC-MS/MS method was used for determining the concentration of representative compounds in plasma and brain tissue.

[3] = system: MDCK cells monolayer model; conditions: dog, 3 h, 10 µM
in vitro = conditions: dog, MDCK
glioblastoma (U87) cells = assay: Antiproliferation in combination with TMZ, U87 cells; format: cell-based, human; conditions: combination with Temozolomide
Experimental: as §2

[4] = cited from earlier work
[5] = mouse, brain, intravenous, read-out: Brain
[6] = mouse, brain, intravenous, 60 min after tail vein injection of 1.5 mg/kg, read-out: Brain
[7] = mouse, brain/plasma, intravenous, read-out: B/P ratio
[8] = mouse, brain/plasma, intravenous, 60 min after tail vein injection of 1.5 mg/kg, read-out: B/P ratio
[9] = mouse, plasma, intravenous, read-out: Plasma
[10] = mouse, plasma, intravenous, 60 min after tail vein injection of 1.5 mg/kg, read-out: Plasma

T1 sequence (P09874 whole entry): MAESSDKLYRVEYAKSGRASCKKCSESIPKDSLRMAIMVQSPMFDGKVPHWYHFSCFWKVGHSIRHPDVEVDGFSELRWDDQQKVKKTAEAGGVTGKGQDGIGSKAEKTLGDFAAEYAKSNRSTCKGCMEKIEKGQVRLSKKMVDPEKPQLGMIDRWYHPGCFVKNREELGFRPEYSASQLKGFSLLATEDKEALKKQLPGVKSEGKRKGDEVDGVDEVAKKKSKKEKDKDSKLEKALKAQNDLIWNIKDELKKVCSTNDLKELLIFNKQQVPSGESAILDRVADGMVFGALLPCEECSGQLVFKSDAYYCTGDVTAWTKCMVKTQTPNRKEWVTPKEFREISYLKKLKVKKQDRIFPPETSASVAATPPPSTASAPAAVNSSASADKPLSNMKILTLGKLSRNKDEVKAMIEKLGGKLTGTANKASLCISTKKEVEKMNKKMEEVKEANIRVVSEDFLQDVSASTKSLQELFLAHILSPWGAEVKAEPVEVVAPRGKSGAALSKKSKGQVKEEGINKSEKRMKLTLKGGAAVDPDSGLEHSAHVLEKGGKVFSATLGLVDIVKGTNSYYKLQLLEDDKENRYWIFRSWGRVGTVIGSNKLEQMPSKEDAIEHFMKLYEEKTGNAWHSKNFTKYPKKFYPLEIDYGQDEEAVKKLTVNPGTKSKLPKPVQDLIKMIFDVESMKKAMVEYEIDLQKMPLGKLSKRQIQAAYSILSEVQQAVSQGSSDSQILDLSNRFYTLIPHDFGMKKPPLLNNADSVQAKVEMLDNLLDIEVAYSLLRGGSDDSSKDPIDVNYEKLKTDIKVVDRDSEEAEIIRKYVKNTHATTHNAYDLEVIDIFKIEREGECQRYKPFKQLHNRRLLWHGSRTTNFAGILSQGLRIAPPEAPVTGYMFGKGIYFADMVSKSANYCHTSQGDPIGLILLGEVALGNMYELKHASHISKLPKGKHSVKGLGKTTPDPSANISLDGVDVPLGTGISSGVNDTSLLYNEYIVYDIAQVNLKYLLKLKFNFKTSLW
Chain of PARP-2 (Q9UGN5 whole entry): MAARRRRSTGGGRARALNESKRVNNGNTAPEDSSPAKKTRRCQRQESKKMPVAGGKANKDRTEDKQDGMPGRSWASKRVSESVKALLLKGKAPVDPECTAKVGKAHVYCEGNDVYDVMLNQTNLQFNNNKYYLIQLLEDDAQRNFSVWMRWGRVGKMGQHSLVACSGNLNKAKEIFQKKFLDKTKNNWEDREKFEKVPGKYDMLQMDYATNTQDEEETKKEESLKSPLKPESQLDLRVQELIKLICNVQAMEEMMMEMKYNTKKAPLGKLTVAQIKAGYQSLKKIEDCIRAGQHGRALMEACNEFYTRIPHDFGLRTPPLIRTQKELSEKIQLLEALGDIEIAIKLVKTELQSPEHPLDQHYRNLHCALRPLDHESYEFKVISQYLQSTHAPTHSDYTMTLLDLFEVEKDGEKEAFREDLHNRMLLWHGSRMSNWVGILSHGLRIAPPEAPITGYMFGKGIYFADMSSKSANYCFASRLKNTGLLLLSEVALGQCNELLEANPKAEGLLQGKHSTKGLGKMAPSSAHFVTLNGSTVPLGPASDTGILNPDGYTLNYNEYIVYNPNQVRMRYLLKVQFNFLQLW

Row | IC50 (PARP-1) [µM] | inhibition at 0.05 µM (PARP-1) [%] | IC50 (PARP-2) [µM] | IC50 [1] [µM] | IC50 (MCF7 cells) [µM] | IC50 (A549 cells) [µM] | concentration at 5 min [2, 5] [ng/g] | concentration at 60 min [2, 6] [ng/g] | Kp at 5 min [2, 7] | Kp at 60 min [2, 8] | concentration at 5 min [2, 9] [ng/mL] | concentration at 60 min [2, 10] [ng/mL] | Capical [3] [µg/mL] | Cbasolateral [3] [µg/mL] | Papp A→B at 3 h, 10 µM (in vitro) [×10⁻⁶ cm/s] | Kp ([2]; mouse, brain/plasma, intravenous, maintained over 5 and 60 min, 1.5 mg/kg tail vein, read-out: B/P ratio) | B/P ratio ([2]; 60 min after tail vein injection of 1.5 mg/kg, 1.5 mg/kg) [fold] | SMILES | Sensitisation effect in combination with TMZ (glioblastoma (U87) cells) | CNS penetration [4]
1 | 0.0414 | > 50 | 0.0512 | 40.3 ± 3.3 | 44.3 ± 5.2 | 121 ± 16.2 | 301 ± 52.5 | 9.67 ± 8.75 | 0.1 ± 0.01 | 0.01 ± 0.01 | 3120 ± 220 | 1050 ± 70.3 | 1.65 ± 0.32 | 0.31 ± 0.08 | 15.7 ± 1.32 | – | – | Cc1n[nH]c(C)c1-c1ccc(C2=Nc3ccccc3C(=O)NC2)cc1 [Compound H34, 2-(4-(3,5-Dimethyl-1H-pyrazol-4-yl)phenyl)-3,4-dihydro-5H-benzo[e][1,4]diazepin-5-one] | – | –
2 | 0.0403 | > 50 | 0.0471 | 31.4 ± 2.8 | 39.4 ± 4.2 | 162 ± 18.4 | 1820 ± 324 | 51.8 ± 13.6 | 3.28 ± 0.28 | 3.58 ± 0.53 | 555 ± 104 | 15.1 ± 5.44 | 1.62 ± 0.37 | 0.33 ± 0.05 | 16.1 ± 1.08 | > 3 | – | COc1ccc(-c2ccc(C3=Nc4ccccc4C(=O)NC3)cc2)cc1 [Compound H42, 2-(4′-Methoxy-[1,1′-biphenyl]-4-yl)-3,4-dihydro-5H-benzo[e][1,4]diazepin-5-one] | significant sensitisation effects | –
3 | 0.0378 | > 50 | 0.0407 | 30.7 ± 4 | 35.7 ± 2.9 | 176 ± 23.1 | 1050 ± 153 | 10.1 ± 0.87 | 0.4 ± 0.05 | 0.07 ± 0.02 | 2650 ± 264 | 157 ± 32.3 | 2.43 ± 0.42 | 0.23 ± 0.06 | 11.7 ± 0.51 | – | – | Nc1ccc(-c2ccc(C3CNC(=O)c4ccccc4N3)cc2)cc1 (centres unmarked) [Compound H48, 2-(4′-Amino-[1,1′-biphenyl]-4-yl)-1,2,3,4-tetrahydro-5H-benzo[e][1,4]diazepin-5-one] | – | –
4 | – | 38.5 ± 4.5 | – | – | – | – | – | – | – | – | – | – | – | – | – | – | – | COc1cccc(-c2ccc(C3CNC(=O)c4ccccc4N3)cc2)c1 (centres unmarked) [Compound H49, 2-(3′-Methoxy-[1,1′-biphenyl]-4-yl)-1,2,3,4-tetrahydro-5H-benzo[e][1,4]diazepin-5-one] | – | –
5 | 0.0463 | > 50 | 0.0451 | 130 ± 10.7 | 125 ± 13.2 | > 200 | – | – | – | – | – | – | – | – | – | – | – | COc1ccc(-c2ccc(C3CNC(=O)c4ccccc4N3)cc2)cc1 (centres unmarked) [Compound H50, 2-(4′-Methoxy-[1,1′-biphenyl]-4-yl)-1,2,3,4-tetrahydro-5H-benzo[e][1,4]diazepin-5-one] | – | –
6 | – | 48.8 ± 3.7 | – | – | – | – | – | – | – | – | – | – | – | – | – | – | – | O=C1NCC(c2ccc(-c3cccc(C(F)(F)F)c3)cc2)Nc2ccccc21 (centres unmarked) [Compound H51, 2-(3′-(Trifluoromethyl)-[1,1′-biphenyl]-4-yl)-1,2,3,4-tetrahydro-5H-benzo[e][1,4]diazepin-5-one] | – | –
7 | 0.0302 | > 50 | 0.0396 | 24.6 ± 3.7 | 37.9 ± 3.5 | 157 ± 15.2 | 1570 ± 264 | 2630 ± 118 | 2.18 ± 0.27 | 4.41 | 719 ± 39.9 | 597 ± 25 | 1.65 ± 0.05 | 0.45 ± 0.07 | 19.7 ± 0.92 | – | 4.41 ± 0.07 | O=C1NCC(c2ccc(-c3ccc(C(F)(F)F)cc3)cc2)Nc2ccccc21 (centres unmarked) [Compound H52, 2-(4′-(Trifluoromethyl)-[1,1′-biphenyl]-4-yl)-1,2,3,4-tetrahydro-5H-benzo[e][1,4]diazepin-5-one] | significant sensitisation effects | –
8 | – | 29.9 ± 3.4 | – | – | – | – | – | – | – | – | – | – | – | – | – | – | – | CC(C)N1CCN(c2ccc(C3CNC(=O)c4ccccc4N3)cc2)CC1 (centres unmarked) [Compound H53, 2-(4-(4-Isopropylpiperazin-1-yl)phenyl)-1,2,3,4-tetrahydro-5H-benzo[e][1,4]diazepin-5-one] | – | –
9 | – | 34.6 ± 6.8 | – | – | – | – | – | – | – | – | – | – | – | – | – | – | – | CC(=O)N1CCN(c2ccc(C3CNC(=O)c4ccccc4N3)cc2)CC1 (centres unmarked) [Compound H54, 2-(4-(4-Acetylpiperazin-1-yl)phenyl)-1,2,3,4-tetrahydro-5H-benzo[e][1,4]diazepin-5-one] | – | –
10 | – | 39.3 ± 5.2 | – | – | – | – | – | – | – | – | – | – | – | – | – | – | – | C[C@@H]1CN(c2ccc(C3CNC(=O)c4ccccc4N3)cc2)C[C@H](C)O1 (stereo partly drawn) [Compound H55, 2-(4-((2S,6R)-2,6-dimethylmorpholino)phenyl)-1,2,3,4-tetrahydro-5H-benzo[e][1,4]diazepin-5-one] | – | –
11 | – | – | – | – | – | – | – | – | – | – | – | – | – | – | – | – | – | O=C(c1cc(Cc2n[nH]c(=O)c3ccccc23)ccc1F)N1CCN(C(=O)C2CC2)CC1 [Olaparib] | – | not CNS penetrant
12 | – | 98.2 ± 2.7 | – | 5.5 ± 2.2 | 20.2 ± 3.1 | 34.9 ± 5.2 | 170 ± 48.5 | 13.9 ± 3.78 | 0.14 ± 0.04 | 0.1 ± 0.06 | 1180 ± 122 | 161 ± 60.5 | 3.39 ± 0.82 | – | – | – | – | CNCc1ccc(-c2[nH]c3cc(F)cc4c3c2CCNC4=O)cc1 [Rucaparib, reference compound] | – | could not pass through the blood-brain barrier; also recorded: not CNS penetrant
13 | – | – | – | – | – | – | – | – | – | – | – | – | – | – | – | – | – | Cn1ncnc1[C@H]1c2n[nH]c(=O)c3cc(F)cc(c23)N[C@@H]1c1ccc(F)cc1 [Talazoparib] | – | not CNS penetrant
